Results on five compounds are retold here after US12110527B2, “Production of symmetrical bolaform sophorosides” (priority 2018, dated 2024).

For the assay, the system named is S. bombicola Δcyp52M1Δfao1 strain. In words: Shake flask cultivation fed with different primary fatty alcohols: follow-up of growth (CFU) and glucose consumption. Format: cell-based, Starmerella bombicola. Particulars: for glucose consumption rate: alcohol fed at 1.8 (w/v) % after 48 h of cultivation, shake flask. As for the experimental part: Production experiments using S. bombicola were performed using the production medium described by Lang et al. (2000). For shake flask experiments, 5 ml tube cultures were set up 24 h (30° C.), before transferring to shake flasks (4% inoculation). Production experiments were executed with feeding of fatty alcohols: oleyl alcohol, stearyl alcohol, lauryl alcohol, myristyl alcohol or cetyl alcohol which were added after 48 h of cultivation. The Δcyp52M1Δfao1 strain was also assessed without addition of the hydrophobic alcohol. For every production experiment, cultivation was stopped when glucose was depleted from the medium. Experiments were performed in duplicate, and average values with standard deviations are presented.
Optical density (OD) of cultures was measured at 600 nm using the Jasco V 630 Bio spectrophotometer (Jasco Europe) of 1 mL samples diluted with physiological solution (9 g/L NaCl). The viability of yeast cells in cultivation experiments was assessed by determining colony forming units (CFUs) which were expressed as the average logarithm of CFUs per culture volume as log (CFU/mL) (Saerens et al., 2011). Alternatively, Cell Dry Weight (CDW) was determined by centrifuging 1 mL fermentation samples at 14000 rpm for 5 min in tared Eppendorf tubes, and subsequently washing the cell pellets twice with 1 mL physiological solution. The remaining cell pellet was put into a 70° C. oven for 5 days and then weighed afterwards. The CDW (g/L) was calculated after subtraction of the empty weight of the Eppendorf tube.
Glucose concentrations were determined using the 2700 Select Biochemistry Analyser (YSI Inc.) or using Ultra Performance Liquid Chromatography (Waters Acquity H-Class UPLC), coupled with an Evaporative Light Scattering Detector (Waters Acquity ELSD Detector) (UPLC-ELSD). For the UPLC analysis, an Acquity UPLC BEH Amide column (130 Å, 1.7 μm, 2.1×100 mm) (Waters) was used at 35° C. and an isocratic flow rate of 0.5 mL/min of 75% acetonitrile and 0.2% triethylamine (TEA) was applied (5 min/sample). For the ELS detection, the nebulizer was cooled to 15° C. and the drift tube was kept at a temperature of 50° C. […] To express glucose consumption, a linear curve was fitted through the obtained glucose concentrations by UPLC-ELSD, and the respective slope was taken and denoted as the glucose consumption rate (g/L·h).
When two different groups were compared, the Welch's test was performed with a 95% confidence level using GraphPad Prism 7.04 software. For multiple group comparisons, analysis of variance (ANOVA) with Bonferroni's multiple comparison test correction with a 95% confidence level using GraphPad Prism 7.04 software was employed. For parameters pH, CFU, OD and glucose consumption, average values were taken when the yeast cells attained their stationary phase (after 48 h of cultivation). In general, data represented in graphs are the average and standard deviation of two experimental replicates (unless stated otherwise).
Unexpectedly, no successful uniform production of either bola SSs or alkyl SSs was obtained for the Δcyp52M1Δfao1 strain when feeding with oleyl alcohol. Instead, mixtures of both were found, although the majority of the novel glycolipids were (acetylated) bola SSs and only minor amounts of alkyl SS were produced. The production of tetra-acetylated bola SS was unexpected, since the CYP52M1 enzyme was thought to be the only enzyme involved in glycolipid production thus far in S. bombicola. To assess the influence on the chain lengths of primary alcohols to the glycolipid production, different substrates were fed to the Δcyp52M1Δfao1 strain. The parental strain Δcyp52M1 was assessed in parallel. Medium and long-chain alcohols were selected between a chain length of 12 and 18, similarly as reported by Davila et al. (1994) for alkanes. Similarly as for the experiments described above, the hydrophobic substrate was added after 48 h of cultivation.

`CCCCCCCCCCCCCCCCCCO` [stearyl alcohol] registered a glucose consumption rate of 0.38 g/L·h. In turn, `CCCCCCCCCCCCCCO` [myristyl alcohol] had a glucose consumption rate of 0.48 g/L·h. On to `CCCCCCCCCCCCO` [lauryl alcohol], for which the “glucose consumption after addition of the alcohol” value (addition 48 h after inoculation) is given as “stopped”. Also, the “CFUs (log (CFU/mL))” value (after addition of the alcohol, 1.8 (w/v) % added after 48 h of cultivation, in contrast to all other fed substrates (FIG. 8A)) is listed as “significant drop”. Besides, the “glucose consumption rate after it initiated again” value (only Δcyp52M1Δfao1 strain, 100 h after substrate addition, until all glucose was depleted) came out at 0.33 g/L·h. Compound `CCCCCCCCCCCCCCCCO` [cetyl alcohol] gave a glucose consumption rate of 0.38 g/L·h.

On to `CCCCCCCC/C=C\CCCCCCCCO` [oleyl alcohol], for which the glucose consumption rate is on record as 0.48 g/L·h.
